Measurements taken from PubChem BioAssay AID330 (DTP/NCI, 2004).
Several values for one entry are separate records, joined by “and”; a condition that tells them apart may be missing. Equal values may be shown once. Inconclusive results and toxic doses are left out.

Tested on: P388 leukemia ip, CD2F1 mice, survival T/C
Experiment: NCI In Vivo Anticancer Drug Screen. Data for tumor model P388 Leukemia (intraperitoneal) in CD2F1 (CDF1) mice
Details: endpoint: median survival time, higher = longer survival
How it was run: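 Mice carrying the transplanted tumor received test compound or vehicle. Survival was recorded in each group, and the value is the treated-group measurement divided by that of the vehicle-treated control group.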

[1] = dose: 50.0 mg/kg/injection, schedule: Q01DX005 (ip), vehicle: saline with Tween-80
[2] = dose: 100.0 mg/kg/injection, schedule: Q01DX005 (ip), vehicle: saline with Tween-80
[3] = dose: 200.0 mg/kg/injection, schedule: Q01DX005 (ip), vehicle: saline with Tween-80
[4] = dose: 50.0 mg/kg/injection, schedule: Q01DX009 (ip), vehicle: saline
[5] = dose: 50.0 mg/kg/injection, schedule: Q01DX009 (ip), vehicle: saline with Tween-80
[6] = dose: 100.0 mg/kg/injection, schedule: Q01DX009 (ip), vehicle: saline with Tween-80
[7] = dose: 200.0 mg/kg/injection, schedule: Q01DX009 (ip), vehicle: saline with Tween-80

COc1cc2c(c(OC)c1OC)-c1ccc(=O)c(OC)cc1C=CC2
T/C (dose: 2.5 mg/kg/injection, schedule: Q01DX009 (ip), vehicle: Klucel (hydroxypropylcellulose) (HPC)): 100 % of control
T/C (dose: 5.0 mg/kg/injection, schedule: Q01DX009 (ip), vehicle: Klucel (hydroxypropylcellulose) (HPC)): 106 % of control
T/C (dose: 10.0 mg/kg/injection, schedule: Q01DX009 (ip), vehicle: Klucel (hydroxypropylcellulose) (HPC)): 104 % of control and 108 % of control
T/C (dose: 20.0 mg/kg/injection, schedule: Q01DX009 (ip), vehicle: Klucel (hydroxypropylcellulose) (HPC)): 103 % of control and 109 % of control
T/C (dose: 40.0 mg/kg/injection, schedule: Q01DX009 (ip), vehicle: Klucel (hydroxypropylcellulose) (HPC)): 106 % of control and 123 % of control
T/C (dose: 80.0 mg/kg/injection, schedule: Q01DX009 (ip), vehicle: Klucel (hydroxypropylcellulose) (HPC)): 115 % of control

CCCCn1c(=O)cc[nH]c1=O
T/C (dose: 100.0 mg/kg/injection, schedule: Q04DX003 (ip), vehicle: saline with Tween-80): 100 % of control
T/C (dose: 200.0 mg/kg/injection, schedule: Q04DX003 (ip), vehicle: saline with Tween-80): 100 % of control
T/C (dose: 400.0 mg/kg/injection, schedule: Q04DX003 (ip), vehicle: saline with Tween-80): 99 % of control

COc1ccc2nccc(/C=C/c3ccnc4ccc(OC)cc34)c2c1
T/C [1]: 103 % of control
T/C [2]: 103 % of control
T/C [3]: 100 % of control

Cc1cc2c(cc1CC(=O)O)CC(=O)NC2
T/C (dose: 1.56 mg/kg/injection, schedule: Q01DX009 (ip), vehicle: distilled water + Tween-80): 109 % of control
T/C (dose: 3.13 mg/kg/injection, schedule: Q01DX009 (ip), vehicle: distilled water + Tween-80): 104 % of control
T/C (dose: 6.25 mg/kg/injection, schedule: Q01DX009 (ip), vehicle: distilled water + Tween-80): 123 % of control and 95 % of control
T/C (dose: 12.5 mg/kg/injection, schedule: Q01DX009 (ip), vehicle: distilled water + Tween-80): 101 % of control
T/C (dose: 25.0 mg/kg/injection, schedule: Q01DX009 (ip), vehicle: distilled water + Tween-80): 101 % of control and 96 % of control
T/C (dose: 50.0 mg/kg/injection, schedule: Q01DX009 (ip), vehicle: distilled water + Tween-80): 104 % of control and 96 % of control
T/C (dose: 100.0 mg/kg/injection, schedule: Q01DX009 (ip), vehicle: distilled water + Tween-80): 102 % of control and 95 % of control
T/C (dose: 200.0 mg/kg/injection, schedule: Q01DX009 (ip), vehicle: distilled water + Tween-80): 100 % of control
T/C (dose: 400.0 mg/kg/injection, schedule: Q01DX009 (ip), vehicle: distilled water + Tween-80): 92 % of control

COc1ccccc1[N+]([O-])=NC#N
T/C (dose: 6.25 mg/kg/injection, schedule: Q04DX003 (ip), vehicle: Klucel (hydroxypropylcellulose) (HPC)): 107 % of control
T/C (dose: 12.5 mg/kg/injection, schedule: Q04DX003 (ip), vehicle: Klucel (hydroxypropylcellulose) (HPC)): 111 % of control
T/C (dose: 25.0 mg/kg/injection, schedule: Q04DX003 (ip), vehicle: Klucel (hydroxypropylcellulose) (HPC)): 99 % of control

COc1cccc2c1C(=O)c1c(O)c3c(c(O)c1C2=O)C[C@@](O)(C(=O)CO)C[C@@H]3OC1CC([N+](C)(C)C)C(O)C(C)O1 (stereo partly specified)
T/C (dose: 3.89 mg/kg/injection, schedule: Q04DX003 (ip), vehicle: water): 105 % of control
T/C (dose: 6.48 mg/kg/injection, schedule: Q04DX003 (ip), vehicle: water): 109 % of control
T/C (dose: 12.5 mg/kg/injection, schedule: Q01DX001 (ip), vehicle: water): 112 % of control
T/C (dose: 12.5 mg/kg/injection, schedule: Q01DX009 (ip), vehicle: water): 160 % of control and 187 % of control
T/C (dose: 30.0 mg/kg/injection, schedule: Q04DX003 (ip), vehicle: water): 150 % of control

COC(=O)CSSCc1ccccc1
T/C (dose: 50.0 mg/kg/injection, schedule: Q01DX005 (ip), vehicle: suspension in saline): 100 % of control
T/C (dose: 100.0 mg/kg/injection, schedule: Q01DX005 (ip), vehicle: suspension in saline): 107 % of control
T/C (dose: 200.0 mg/kg/injection, schedule: Q01DX005 (ip), vehicle: suspension in saline): 107 % of control

COc1cc(=O)cc2n(-c3cc(OC)c(O)c(OC)c3)c3ccccc3nc1-2
T/C (dose: 12.5 mg/kg/injection, schedule: Q01DX009 (ip), vehicle: saline): 100 % of control
T/C (dose: 25.0 mg/kg/injection, schedule: Q01DX009 (ip), vehicle: saline): 104 % of control
T/C [4]: 102 % of control and 88 % of control
T/C (dose: 200.0 mg/kg/injection, schedule: Q01DX009 (ip), vehicle: saline): 98 % of control

CCOC(=O)N/N=C/c1ccc(N(C)CCC#N)cc1
T/C (dose: 6.25 mg/kg/injection, schedule: Q01DX009 (ip), vehicle: Klucel (hydroxypropylcellulose) (HPC)): 90 % of control
T/C (dose: 12.5 mg/kg/injection, schedule: Q01DX009 (ip), vehicle: Klucel (hydroxypropylcellulose) (HPC)): 100 % of control
T/C (dose: 25.0 mg/kg/injection, schedule: Q01DX009 (ip), vehicle: Klucel (hydroxypropylcellulose) (HPC)): 97 % of control
T/C (dose: 50.0 mg/kg/injection, schedule: Q01DX009 (ip), vehicle: Klucel (hydroxypropylcellulose) (HPC)): 88 % of control and 89 % of control
T/C (dose: 200.0 mg/kg/injection, schedule: Q01DX009 (ip), vehicle: Klucel (hydroxypropylcellulose) (HPC)): 90 % of control

OC(CNc1ccccc1Cl)COc1ccc(Cl)cc1Cl (stereo unspecified)
T/C [5]: 94 % of control
T/C [6]: 95 % of control
T/C [7]: 106 % of control

CCCCCCC(=O)/C=C/c1ccc(OC(=O)c2ccc(C)cc2)cc1
T/C [5]: 95 % of control
T/C [6]: 93 % of control
T/C [7]: 93 % of control

S=c1nn[nH]n1-c1cccc2ccccc12
T/C (dose: 100.0 mg/kg/injection, schedule: Q04DX003 (ip), vehicle: saline sonified): 90 % of control
T/C (dose: 200.0 mg/kg/injection, schedule: Q04DX003 (ip), vehicle: saline sonified): 100 % of control
T/C (dose: 400.0 mg/kg/injection, schedule: Q04DX003 (ip), vehicle: saline sonified): 100 % of control

CC(N[Si](c1ccccc1)(c1ccccc1)C(C)(C)C)c1ccccc1 (stereo unspecified)
T/C [1]: 98 % of control
T/C [2]: 97 % of control
T/C [3]: 97 % of control

Cc1ncc2n1-c1ccc(Cl)cc1C(c1ccccc1F)=NC2
T/C [4]: 103 % of control
T/C (dose: 100.0 mg/kg/injection, schedule: Q01DX009 (ip), vehicle: saline): 112 % of control

[C-]#[O+].[C-]#[O+].[C-]#[O+].[CH3][Sn]([c]1ccccc1)[c]1ccccc1.[W].[c-]1[c-][c-][cH-][c-]1
T/C (dose: 100.0 mg/kg/injection, schedule: Q04DX003 (ip), vehicle: saline): 103 % of control
T/C (dose: 200.0 mg/kg/injection, schedule: Q04DX003 (ip), vehicle: saline): 110 % of control
T/C (dose: 400.0 mg/kg/injection, schedule: Q04DX003 (ip), vehicle: saline): 110 % of control

CCOc1ccc(N=NC2C(=O)N(c3cccc(Cl)c3Cl)C(=S)N(c3ccccc3)C2O)cc1 (stereo unspecified)
T/C (dose: 100.0 mg/kg/injection, schedule: Q01DX001 (ip), vehicle: Klucel (hydroxypropylcellulose) (HPC)): 99 % of control
T/C (dose: 200.0 mg/kg/injection, schedule: Q01DX001 (ip), vehicle: Klucel (hydroxypropylcellulose) (HPC)): 100 % of control
T/C (dose: 400.0 mg/kg/injection, schedule: Q01DX001 (ip), vehicle: Klucel (hydroxypropylcellulose) (HPC)): 97 % of control

COc1c(N)c2c(c([N+](=O)[O-])c1OC)C(=O)OC2
T/C (dose: 50.0 mg/kg/injection, schedule: Q01DX005 (ip), vehicle: Klucel (hydroxypropylcellulose) (HPC)): 103 % of control
T/C (dose: 100.0 mg/kg/injection, schedule: Q01DX005 (ip), vehicle: Klucel (hydroxypropylcellulose) (HPC)): 93 % of control
T/C (dose: 200.0 mg/kg/injection, schedule: Q01DX005 (ip), vehicle: Klucel (hydroxypropylcellulose) (HPC)): 97 % of control

CCCCCCCCCCCCCCCC(=O)NCCO
T/C (dose: 33.0 mg/kg/injection, schedule: Q04DX003 (ip), vehicle: saline with Tween-80): 91 % of control
T/C (dose: 75.0 mg/kg/injection, schedule: Q04DX003 (ip), vehicle: saline with Tween-80): 87 % of control

COc1ccc(Sc2c(C(=O)O)cccc2C(=O)O)cc1
T/C (dose: 100.0 mg/kg/injection, schedule: Q04DX002 (ip), vehicle: saline with Tween-80): 102 % of control
T/C (dose: 200.0 mg/kg/injection, schedule: Q04DX002 (ip), vehicle: saline with Tween-80): 100 % of control
T/C (dose: 400.0 mg/kg/injection, schedule: Q04DX002 (ip), vehicle: saline with Tween-80): 101 % of control

Cc1c2cccc(Sc3ccccc3)c2c2c3c(cccc13)[S+](c1ccccc1)C2 (stereo unspecified)
T/C (dose: 6.25 mg/kg/injection, schedule: Q01DX009 (ip), vehicle: saline with Tween-80): 113 % of control
T/C (dose: 12.5 mg/kg/injection, schedule: Q01DX009 (ip), vehicle: saline with Tween-80): 115 % of control
